Assay results reported in patent US9321718B2 (CHROMA THERAPEUTICS LTD., priority 2010, dated 2016).

Key:
[1] = test system: TNF-α levels in LPS-stimulated human whole blood; assay: LPS-stimulation of human whole blood (TNF-α levels); format: cell-based; settings: Homo sapiens; IC50 range; TNF-α after LPS 100 ng/ml, 6 hours
Method: Whole blood is taken by venous puncture using heparinised vacutainers (Becton Dickinson) and diluted in an equal volume of RPMI1640 tissue culture media (Sigma). 100 μl is then plated in V-bottomed 96 well tissue culture treated plates. 2 Hours after the addition of the inhibitor in 100 μl of RPMI1640 media, the blood is stimulated with LPS (E. Coli strain 005:B5, Sigma) at a final concentration of 100 ng/ml and incubated at 37° C. in 5% CO2 for 6 hours. TNF-α levels are measured from cell-free supernatants by sandwich ELISA (R&D Systems #QTA00B).

[2] = target: T1, human recombinant his-tagged HSP90α (Homo sapiens, UniProt P07900); assay: HSP90 enzyme assay (HTRF, competition with biotinylated Geldanamycin); format: binding; settings: IC50 range; read-out: Enzyme Assay
T1 construct: purchased Prospec Technogene #HSP90
Outline: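 HTRF competition: compounds (5000 to 0.3 nM, 0.5% DMSO) displace 40 nM biotinylated geldanamycin from 40 nM his-tagged HSP90α. Binding was read via Eu-cryptate anti-his/streptavidin-XL FRET after 20 h at room temperature in Hepes pH 7.3 buffer. IC50 was fitted against controls.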

[3] = test system: TNFα release from LPS stimulated THP-1 (hCE-1 +ve) cells; assay: LPS-stimulation of THP-1 cells (TNF-α release); format: cell-based, human; settings: Homo sapiens, THP-1; IC50 range; TNF-α after LPS 1 μg/ml, 6 hours; read-out: THP-1 Assay
Method: THP-1 cells are plated in […] at a density of 4×10^4 cells/well in V-bottomed 96 well tissue culture treated plates and incubated at 37° C. in 5% CO2 for 16 hours. 2 Hours after the addition of the inhibitor in 100 μl of tissue culture media, the cells are stimulated with LPS (E. Coli strain 005:B5, Sigma) at a final concentration of 1 μg/ml and incubated at 37° C. in 5% CO2 for 6 hours. TNF-α levels are measured from cell-free supernatants by sandwich ELISA (R&D Systems #QTA00B).

IC50 [1] [nM] | IC50 [2] [nM] | IC50 [3] [nM] | Compound
100 to 1000 | < 100 | 100 to 1000 | CC(C)c1cc(C(=O)N2CCC(NC(C)(C)C(=O)OC3CCCC3)CC2)c(O)cc1O [Example 2, cyclopentyl N-(1-{[2,4-dihydroxy-5-(propan-2-yl)phenyl]carbonyl}piperidin-4-yl)-2-methylalaninate]
> 1000 | < 100 | > 1000 | CC(C)c1cc(C(=O)N2CCC(N[C@H](C(=O)OC3CCCC3)c3ccccc3)CC2)c(O)cc1O [Example 4, cyclopentyl (2S)-[(1-{[2,4-dihydroxy-5-(propan-2-yl)phenyl]carbonyl}piperidin-4-yl)amino](phenyl)ethanoate]
100 to 1000 | < 100 | 100 to 1000 | CC(C)c1cc(C(=O)N2CCC(N[C@@H](C)C(=O)OC3CCCC3)CC2)c(O)cc1O [Example 5, cyclopentyl N-(1-{[2,4-dihydroxy-5-(propan-2-yl)phenyl]carbonyl}piperidin-4-yl)-L-alaninate]
100 to 1000 | < 100 | 100 to 1000 | CC(C)c1cc(C(=O)N2CCC(N[C@@H](Cc3ccccc3)C(=O)OC3CCCC3)CC2)c(O)cc1O [Example 9, cyclopentyl N-(1-{[2,4-dihydroxy-5-(propan-2-yl)phenyl]carbonyl}piperidin-4-yl)-L-phenylalaninate]
> 1000 | < 100 | 100 to 1000 | CCCC[C@H](NC1CCN(C(=O)c2cc(C(C)C)c(O)cc2O)CC1)C(=O)OC1CCCC1 [Example 10, cyclopentyl N-(1-{[2,4-dihydroxy-5-(propan-2-yl)phenyl]carbonyl}piperidin-4-yl)-L-norleucinate]
< 100 | < 100 | 100 to 1000 | CC(C)c1cc(C(=O)N2CCC(N[C@@H](CC3CCCCC3)C(=O)OC3CCCC3)CC2)c(O)cc1O [Example 13, cyclopentyl 3-cyclohexyl-N-(1-{[2,4-dihydroxy-5-(propan-2-yl)phenyl]carbonyl}piperidin-4-yl)-L-alaninate]
> 1000 | < 100 | > 1000 | CC(C)C[C@H](NC1CCN(C(=O)c2cc(C(C)C)c(O)cc2O)C1)C(=O)OC1CCCC1 (stereo partly drawn) [Example 20, cyclopentyl N-(1-{[2,4-dihydroxy-5-(propan-2-yl)phenyl]carbonyl}pyrrolidin-3-yl)-L-leucinate]
100 to 1000 | < 100 | < 100 | CC(C)C[C@H](NCC1CCN(C(=O)c2cc(C(C)C)c(O)cc2O)CC1)C(=O)OC1CCCC1 [Example 21, cyclopentyl N-[(1-{[2,4-dihydroxy-5-(propan-2-yl)phenyl]carbonyl}piperidin-4-yl)methyl]-L-leucinate]
< 100 | < 100 | < 100 | CC(C)c1cc(C(=O)N2CCC(CN[C@@H](C)C(=O)OC3CCCC3)CC2)c(O)cc1O [Example 22, cyclopentyl N-[(1-{[2,4-dihydroxy-5-(propan-2-yl)phenyl]carbonyl}piperidin-4-yl)methyl]-L-alaninate]
100 to 1000 | < 100 | 100 to 1000 | CC(C)c1cc(C(=O)N2CCC(CN[C@@H](Cc3ccccc3)C(=O)OC3CCCC3)CC2)c(O)cc1O [Example 23, cyclopentyl N-[(1-{[2,4-dihydroxy-5-(propan-2-yl)phenyl]carbonyl}piperidin-4-yl)methyl]-L-phenylalaninate]
100 to 1000 | < 100 | 100 to 1000 | CC(C)C[C@@H](NCC1CCN(C(=O)c2cc(C(C)C)c(O)cc2O)CC1)C(=O)OC1CCCC1 [Example 28, cyclopentyl N-[(1-{[2,4-dihydroxy-5-(propan-2-yl)phenyl]carbonyl}piperidin-4-yl)methyl]-D-leucinate]
100 to 1000 | < 100 | 100 to 1000 | CC(C)c1cc(C(=O)N2CCC(CNC(C)(C)C(=O)OC3CCCC3)CC2)c(O)cc1O [Example 32, cyclopentyl N-[(1-{[2,4-dihydroxy-5-(propan-2-yl)phenyl]carbonyl}piperidin-4-yl)methyl]-2-methyl-L-alaninate]
100 to 1000 | < 100 | 100 to 1000 | CC(C)c1cc(C(=O)N2CCC(CN[C@@H](COC(C)(C)C)C(=O)OC3CCCC3)CC2)c(O)cc1O [Example 34, cyclopentyl O-tert-butyl-N-[(1-{[2,4-dihydroxy-5-(propan-2-yl)phenyl]carbonyl}piperidin-4-yl)methyl]-L-serinate]
100 to 1000 | < 100 | 100 to 1000 | CC(C)c1cc(C(=O)N2CCC(CN[C@H](C(=O)OC3CCCC3)c3ccccc3)CC2)c(O)cc1O [Example 36, cyclopentyl (2S)-{[(1-{[2,4-dihydroxy-5-(propan-2-yl)phenyl]carbonyl}piperidin-4-yl)methyl]amino}(phenyl)ethanoate]
100 to 1000 | < 100 | 100 to 1000 | CC(C)C[C@H](NCCC1CCN(C(=O)c2cc(C(C)C)c(O)cc2O)CC1)C(=O)OC1CCCC1 [Example 38, cyclopentyl N-[2-(1-{[2,4-dihydroxy-5-(propan-2-yl)phenyl]carbonyl}piperidin-4-yl)ethyl]-L-leucinate]
> 1000 | > 1000 | 100 to 1000 | CC(C)c1cc(C(=O)N2CCC(CCN[C@@H](Cc3ccccc3)C(=O)OC3CCCC3)CC2)c(O)cc1O [Example 40, cyclopentyl N-[2-(1-{[2,4-dihydroxy-5-(propan-2-yl)phenyl]carbonyl}piperidin-4-yl)ethyl]-L-phenylalaninate]
100 to 1000 | < 100 | < 100 | CC(C)c1cc(C(=O)N2CCC(CCNC(C)(C)C(=O)OC3CCCC3)CC2)c(O)cc1O [Example 44, cyclopentyl N-[2-(1-{[2,4-dihydroxy-5-(propan-2-yl)phenyl]carbonyl}piperidin-4-yl)ethyl]-2-methylalaninate]
100 to 1000 | < 100 | 100 to 1000 | CC(C)c1cc(C(=O)N2CCC(CCN[C@@H](COC(C)(C)C)C(=O)OC3CCCC3)CC2)c(O)cc1O [Example 45, cyclopentyl O-tert-butyl-N-[2-(1-{[2,4-dihydroxy-5-(propan-2-yl)phenyl]carbonyl}piperidin-4-yl)ethyl]-L-serinate]
100 to 1000 | < 100 | 100 to 1000 | CC(C)C[C@H](NCc1ccc2c(c1)CN(C(=O)c1cc(C(C)C)c(O)cc1O)C2)C(=O)OC1CCCC1 [Example 54, cyclopentyl N-[(2-{[2,4-dihydroxy-5-(propan-2-yl)phenyl]carbonyl}-2,3-dihydro-1H-isoindol-5-yl)methyl]-L-leucinate]
100 to 1000 | < 100 | 100 to 1000 | CC(C)c1cc(C(=O)N2Cc3ccc(CNC(C)(C)C(=O)OC4CCCC4)cc3C2)c(O)cc1O [Example 55, cyclopentyl N-[(2-{[2,4-dihydroxy-5-(propan-2-yl)phenyl]carbonyl}-2,3-dihydro-1H-isoindol-5-yl)methyl]-2-methylalaninate]
> 1000 | 100 to 1000 | > 1000 | CC(C)c1cc(C(=O)N2Cc3ccc(CN[C@@H](C)C(=O)OC(C)(C)C)cc3C2)c(O)cc1O [Example 56, tert-butyl N-[(2-{[2,4-dihydroxy-5-(propan-2-yl)phenyl]carbonyl}-2,3-dihydro-1H-isoindol-5-yl)methyl]-L-alaninate]
